The structures appear in SMILES notation. Entries after “also recorded” stand apart in the source; their conditions may differ.

The target of data set [1] is T1, PP2A (Homo sapiens, UniProt P67775).
T1 construct: made in house
Nature of the data set: Phosphatase activity of PP2A using phosphorylase a as substrate. It counts as biochemical. As to conditions: un-methylated PP2A, protein substrate phosphorylase a, absence of ME and MT. The procedure:
After the reaction, proteins were precipitated by 50% (NH4)2SO4 (final concentration) twice, and collected by centrifugation. The pellet was re-dissolved and dialyzed in a buffer containing 50 mM Tris-HCl (pH6.9) and ImM DTT for 2×2 L at 4° C. overnight. Phosphorylase a (phospho-phosphorylase b) crystallized during the dialysis. The dialysate was centrifuged 14,000 r.p.m at 4° C. for 30 minutes, the supernatant was removed and purified ^32P-labelled phosphorylase a was re-dissolved in +50% glycerol, and stored at −20° C.
To measure PP2A's phosphatase activity, PP2A (5-20 nM) was incubated with phosphorylase a (5-10 μM) at 37° C. 10% TCA (final concentration) and was added to the reaction to precipitate proteins. Supernatant that contains free ^32P-phosphate group was added into scintillation counting solution (Ecoscint, National Diagnostics), and counted by scintillation counter (LS 6000SE, Beckman).

For data set [2], the system named is N2a Neuroblastoma Cells. Briefly: Cytotoxicity in N2a neuroblastoma cells (CellTiter 96 AQueous One). The following applies: all concentrations tested (1-50 μM). It counts as cell-based. The procedure: 2×10^4 N2a cells were plated in each well of a 96-well cell culture plate containing 100 pi EMEM (Gibco), supplemented with 10% FBS (N2a growth medium), and were incubated at 37° C. for 48 hours. On the day of treatment, stock solutions of […] of Compound I-63 in ethanol were further diluted with N2a growth medium to obtain Compound I-63-containing N2a medium with 50 μM, 10 μM, 5 μM and 1 μM Compound I-63. The final concentration of ethanol in all media dilutions was 1%, and therefore 1% ethanol was added to the 0 μM Compound I-63 (untreated) control. The media dilutions were applied to the N2a cells (100 µl per well) and incubated at 37° C. for 4 hours or 24 hours. At the end of the treatment period, cell media was removed and 100 μl of pre-warmed phenol red-free N2a growth media was added to each well. 20 µl of the CellTiter 96® AQueous One Solution (Promega) was added to each well and the dish was incubated at 37° C. for 1-4 hours until visible reddish color develops. The dish was read at a wavelength of 490 nm using a plate reader. N2a cells were grown in 96-well dishes and were treated for 4 hours (♦) or 24 hours (i) with increasing concentrations of Compound I-63. Cell survival was assayed using the CellTiter 96® AQueous One Solution (Promega) using the manufacturer's directions. […]

For data set [3], the system named is Swiss-Webster (wild-type) mice. Briefly: Glucose metabolism (intraperitoneal glucose tolerance test, body weight) in wild-type mice. It counts as in vivo. As to conditions: 0.1% in diet for 128 days. The source says:
The glucose tolerance test (GTT) measures the body's ability to metabolize glucose. It is currently used to diagnose patients with prediabetes disposition and diabetes.
Twenty (20) Swiss-Webster (wild-type) mice were acclimated for 2 weeks. The mice were ear notched for identification and housed in individually and negatively ventilated polycarbonate cages with HEPA filtered air at a density of 6 mice per cage. Bed-o-cob corn cob bedding was used and cages were changed every two weeks. The animal room was lighted entirely with artificial fluorescent lighting, with a controlled 12 h light/dark cycle (7 am to 7 pm light). The normal temperature and relative humidity ranged in the animal rooms are 22±4° C. and 50±15%, respectively. The animal rooms were set to have 15 air exchanges per hour. Filtered tap water, acidified to a pH of 2.8 to 3.2. LabDiet D10001 was provided ad libitum, and leftover food was removed once per week.
Following acclimation, mice are assigned to groups according to diet. • 1. Control Diet (D10001) • 2. Compound I-63 ((D10001 with 0.1% 1-63)
The mice were maintained on the diet for 128 days. […] Mice were weighed and glucose dose calculated for […] body weight. […] Blood glucose levels were measured with the OneTouch UltraSmart electronic glucometer at time point O with tail vein blood. […] Blood glucose was measured at 15, 30, 45, 90 and 120 minutes after glucose injection.

For data set [4], the target named is T1, PP2A. Nature of the data set: Phosphatase activity of PP2A using pNPP as substrate. It counts as biochemical. The following applies: un-methylated PP2A, non-protein substrate pNPP, absence of ME and MT. The procedure:
PP2A (10-200 nM) and pNPP (5-10 mM, Sigma) were mixed into 96-well plate (Fisher Scientific Inc.) in 50 μL of the buffer required. Reactions were performed at room temperature, and fully stopped by adding equal volume of 0.1 M EDTA. Production of p-nitrophenol […] was quantified by absorbance of reaction mixtures at 405 nm using the VMax® microplate reader (Molecular Devices).

Data set [5] has as its system JNPL3 transgenic mice. Briefly: Motor functions of JNPL3 transgenic mice (composite neuroscore). It counts as in vivo. As to conditions: 0.1% diet. The procedure: The JNPL3 transgenic mouse line that carries the transgene for the human P301 L mutation of the microtubule-associated protein tau gene (MAPT) was used in this experiment (Lewis et al., 2000). 9-12 weeks old homozygous JNPL3 males (Laconic Farms, Hudson, N.Y.) were housed under standard conditions (temperature 22±2° C.; relative humidity 50±10%; 12 h light/12 h dark cycle) and allowed to acclimatize for 2 weeks. Following acclimatization, two groups of animals (6 animals per group) are changed to control diet (Research Diets; New Brunswick, N.J.) or purified 0.1% Compound I-63 formulated diet. The composite neuroscore (NS) was used as the scoring system to measure the following tasks: (1) forelimb flexion response during suspension by the tail, (2) righting and postural reflexes, and (3) prehensile traction test (Yoshiyama et al., 2005; Korenova et al., 2009). The neurological and motor examination included the basic reflex response by special attention to the assessment of the hind-limb escape extension reflex, the righting and postural reflexes and the prehensile traction test where the animal is allowed to grasp with its forepaws a horizontal cotton string (1 mm in diameter) suspended 70 cm above a padded surface. The scoring conditions were graded as follows:
2—Animal maintained forelimbs in scissored, clasped or dystonic position
Postural and Righting Reflex:
0—Animal could right when placed supine
1—Animal righting slowed (>ls)
Prehensile Traction Test:
0—Animal could complete test with at least 3 paws and tail within 2 min
1—Animal could hold on to string without falling within 2 min
2—Animal fell before 2 min without completion
3—Animal was unable to perform test
Each animal was scored using a scaling system ranging from 0-12 (normal), 13-20 (mild or early), 21-23 (moderate) and 24-30 (severe) to reflect serious impairment of neuromuscular functionality and muscular weakness. […]
Motor test scores vs. weeks of mice fed control diet (closed circles) and 0.1% Compound I-63 formulated diet (open circles). […]

T1 sequence (P67775 whole entry): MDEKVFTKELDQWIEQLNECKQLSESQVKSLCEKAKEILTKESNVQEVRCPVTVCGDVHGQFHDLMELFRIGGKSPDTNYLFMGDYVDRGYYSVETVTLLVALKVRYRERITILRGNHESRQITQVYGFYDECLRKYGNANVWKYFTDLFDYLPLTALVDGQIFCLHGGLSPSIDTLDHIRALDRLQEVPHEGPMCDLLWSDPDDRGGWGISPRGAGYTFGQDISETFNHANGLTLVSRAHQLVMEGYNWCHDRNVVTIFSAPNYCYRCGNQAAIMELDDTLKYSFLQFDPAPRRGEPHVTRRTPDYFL
T1 sequence (P30153 whole entry partner): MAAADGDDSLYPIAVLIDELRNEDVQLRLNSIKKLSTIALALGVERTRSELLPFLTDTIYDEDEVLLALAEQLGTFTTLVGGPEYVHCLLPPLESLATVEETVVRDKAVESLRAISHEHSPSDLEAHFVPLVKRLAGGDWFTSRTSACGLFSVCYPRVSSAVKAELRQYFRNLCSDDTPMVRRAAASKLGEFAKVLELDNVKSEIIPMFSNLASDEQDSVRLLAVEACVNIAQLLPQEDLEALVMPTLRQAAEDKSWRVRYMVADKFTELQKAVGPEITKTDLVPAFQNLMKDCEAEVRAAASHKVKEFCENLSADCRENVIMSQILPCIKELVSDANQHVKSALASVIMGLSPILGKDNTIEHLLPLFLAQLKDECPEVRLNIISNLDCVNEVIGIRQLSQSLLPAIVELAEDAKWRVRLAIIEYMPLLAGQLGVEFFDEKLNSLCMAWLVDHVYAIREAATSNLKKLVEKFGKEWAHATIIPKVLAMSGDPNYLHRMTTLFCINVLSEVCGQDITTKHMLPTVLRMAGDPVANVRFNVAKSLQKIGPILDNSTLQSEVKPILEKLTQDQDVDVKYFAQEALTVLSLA

For `CCCCCCCCCCCCCCCCCCCC(=O)NCCc1c[nH]c2ccc(O)cc12` [Compound I-63, N-(2-(5-hydroxy-1H-indol-3-yl)ethyl)icosanamide], the half-maximal inhibitory concentration (IC50) in data set [1] and in data set [4] was over 100 µM throughout. The cell survival result in data set [2] (4 hours) and in data set [2] (24 hours) was “over 85%” each time. Besides, in data set [3], the “glucose tolerance in intraperitoneal glucose tolerance test” value is “consistently lower glucose levels; also recorded: improved glucose tolerance”. Further, the “incremental area under the curve of blood glucose levels in the glucose tolerance test compared to control diet” value in data set [3] is under 10%. The “mean motor test scores less than mice on control diet” value in data set [5] (after eleven weeks) and in data set [5] (after twelve weeks) was 75% each time. Besides, in data set [5] (after ten weeks), the “protection from developing motor dysfunction” value is recorded as “protection of JNPL3 transgenic mice from developing motor dysfunction”.
